Entries after “also recorded” stand apart in the source; their conditions may differ. Where two headings read alike, the source gives them in different places.
Legend:
[1] = system: Acinetobacter baumannii strain 5711 (AB5711); test: Growth (OD600) of AB5711 in low iron media with chelators, with or without FeCl3; type: cell-based; details: for bacterial growth (OD600 growth curves): AB5711, low iron media, 100 μM or 200 μM chelator added after 4 hr, 24 hr
Method: Acinetobacter baumannii strain 5711 (AB5711) was grown overnight in LB media and sub-cultured into low iron media. The tested iron chelators were deferoxamine (DFO), deferiprone (DFP), 2,2-dipyridyl, and VK28. The iron chelators were added after 4 hr of growth.
Bacterial growth was estimated by absorption at OD600 every 4 hr for 24 hr. Optical density (OD) at 600 nm (OD600) as measured by a spectrophotometer is a widely used technique known by one skilled in the art to estimate the total number of bacterial cells present in a broth culture (CFU/ml). The exact amount of OD produced by a culture will depend on the concentration of cells present, the species and strain of microbe present, the growth conditions used, and the wavelength of the light being transmitted. Thus, the relationship between OD and cell concentrations will depend on the specific strain and growth conditions studied. For example, the OD600 of 1 for E. coli is about 1×10^9 CFU/ml.
This example provides further evidence that the removal of iron is responsible for bacterial growth inhibition. A. baumannii isolate 5711 was grown in low iron M9 media supplemented with 0 μM, 10 μM, or 100 μM FeCl3 with and without the addition of 200 μM VK28 following 4 hr of growth. Growth was estimated by absorbance at 600 nm every 4 hr for 24 hr.
This example provides further evidence that the removal of iron is responsible for bacterial growth inhibition. A. baumannii isolate 5711 was grown in low iron M9 media supplemented with 0 μM, 10 μM, 100 μM, or 1000 μM FeCl3 with and without the addition of 50 μg/ml of VK28 following 4 hr of growth. Growth was estimated by absorbance at 600 nm after 20 hours.

EC 35218, EC 43888 = test: Checkerboard assay, chelator with antibiotic (FIC); type: cell-based, E. coli
Text: Drug interactions were initially evaluated with the “checkerboard” microdilution design, which provided a matrix of all drug combinations assayed in terms of fractions of the previously determined MIC. The checkerboard microdilution design is described in R. J. Tallarida, “Drug Synergism: Its Detection and Applications,” Journal of Pharmacology and Experimental Therapeutics, 865-872 (2001); and in R. L. White, et al., (1996), supra. FIGS. 39A and 39B show the wellplates having different concentrations of iron chelator and antibiotic, as labeled along the x-axis and y-axis.
The checkerboard assay was used to asses other combinations of iron chelators and antibiotics. The fractional inhibitory concentration index (FIC), which was calculated as follows: FIC=(MIC A in combination/MIC A)+(MIC B in combination/MIC B). Interaction was defined as synergistic if the FIC was <1.0, preferably <0.5, no interaction if the FIC was >1.0 and <4.0, and antagonistic if the FIC was >4.0. […]
The assay was run against the multi-drug resistant bacterial species AB 19606, AB 17978, EC 35218, and EC 43888.

[2] = system: AB5075, a stain of A. baumannii (Ab); test: Development of rifampin resistance over 7 days (OD600); type: cell-based; details: ApoL1 in combination with rifampin; 7 days
Method: Development of antibiotic-resistant strains is an ongoing problem in the treatment of bacterial infections. In some embodiments, the present technology provides methods and compositions for reducing, inhibiting or preventing formation of antibiotic-resistant bacterial strains. In some embodiments, the iron chelator of the present technology is administered to a patient as a prophylactic before antibiotic treatment or during antibiotic treatment. In some embodiments, the iron chelator is added concurrently with an antibiotic.
Cultures of AB5075, a stain of A. baumannii (Ab), was cultured in the presence of Rifampin alone, the iron chelator ApoL1 alone or Rifampin combination with ApoL1 for 7 days.

Escherichia coli = test: Growth (OD600) with VK28 in M9 media with magnesium / calcium; type: cell-based; details: 24 hours
Method: Escherichia coli was grown similar to as described in Example 19 in M9 media containing 2 mM MgSO4 for 24 hours in the presence of 0 μg/ml, 50 μg/ml, 100 μg/ml, or 200 μg/ml VK28. The OD600 was measured at 0, 4, and 24 hour and the results are shown in the time-kill curves of FIG. 18.
In this example, strains of MR Staphylococcus aureus (MRSA), Acinetobacter baumannii (Acinetobacter), Escherichia coli (E. coli), and Pseudomonas aeruginosa (Pseudomonas) were grown in M9 media in the presence of 2 mM MgSO4 and 1.35 mM CaCl2 for 24 hours in the presence or absence of 0 μg/ml, 50 μg/ml, 100 μg/ml, or 200 μg/ml of VK28. The OD600 was measured at 24 hour and the results are shown in the bar graph of FIG. 21.

S. aureus = test: MIC in RPMI1640 media (Table 2); type: cell-based; details: Staphylococcus aureus
Method: Individual MICs were determined following the microdilution method recommended by CLSI in cationic-adjusted Mueller-Hinton Broth (CAMHB), or M9 media. […] Tests were performed in triplicate. MIC of iron chelators were determined for noscomial ESKAPE pathogens.
This media is closer to the iron levels in the human body. MICs are in ug/mL.

[3] = system: five clinical isolates of A. baumannii and AB19606; test: Growth (OD600) of six A. baumannii strains with VK28 in low-iron M9 media; type: cell-based; details: 200 μM VK28 after 4 hr of growth, 24 hr
Method: Five clinical isolates of A. baumannii were obtained from Walter Reed Army Medical Center (WRAMC) and compared to the laboratory strain AB19606 from the ATCC. Strains were challenged with either 0 μM or 200 μM VK28 in low-iron M9 media after 4 hr of growth. Growth was estimated by absorbance at 600 nm every 4 hr for 24 hr. Dashed lines represent the same strains treated with 200 μM VK28.

[4] = EC 35218, in combination with Cefotaxine
[5] = EC 35218, in combination with Colisitin
[6] = EC 35218, in combination with Doxycycline
[7] = EC 35218, in combination with Rifampin
[8] = EC 43888, in combination with Cefotaxine
[9] = EC 43888, in combination with Colisitin
[10] = EC 43888, in combination with Doxycycline
[11] = EC 43888, in combination with Rifampin

What does the source list for `Cc1c(O)c(=O)ccn1C` [ApoL1, 3-hydroxy-1,2-dimethyl-4(1H)-pyridone]?
bacterial growth (OD600 growth curves) [1]: somewhat reduced bacterial growth; FIC (EC 35218, EC 43888; [4]): 1.25; FIC (EC 35218, EC 43888; [5]): 1.25; FIC (EC 35218, EC 43888; [6]): 1.25; FIC (EC 35218, EC 43888; [7]): 0.75; FIC (EC 35218, EC 43888; [8]): 1.25; FIC (EC 35218, EC 43888; [9]): 1.25; FIC (EC 35218, EC 43888; [10]): 1.25; FIC (EC 35218, EC 43888; [11]): 0.75; growth of rifampin-resistant strains [2]: inhibits growth of an antibiotic resistant Ab strain over 7 days; also recorded: inhibition of rifampin-resistant strains of Ab over the 7 days

How did the “growth with FeCl3 added (absorbance at 600 nm after 20 hours)” value ([1]; 50 μg/ml of VK28 with 10, 100 or 1000 μM FeCl3, low iron M9 media) turn out when `OCCN1CCN(Cc2ccc(O)c3ncccc23)CC1` [VK28, 5-(4-(2-hydroxyethyl)piperazin-1-ylmethyl)-8-hydroxyquinoline] was run?
Its value is “inhibition of growth can be rescued by the addition of FeCl3”.

And the “growth with free iron added back” value ([1]; 200 μM VK28 with 10 μM or 100 μM FeCl3, low iron M9 media)?
The value was “bacteria are rescued from the VK28 growth inhibition”.

What about the “bacterial growth (OD600 growth curves)” value [1] of the same compound?
The value was “reduced bacterial growth to a significant extent”.

And the “inhibition of growth (OD600)” value (Escherichia coli; M9 with 2 mM MgSO4, 50-200 μg/ml VK28)?
The value was “inhibition of growth of E. coli is not reduced in the presence of magnesium and calcium”.

What about the “inhibition of growth (OD600)” value (Escherichia coli; M9 with 2 mM MgSO4 and 1.35 mM CaCl2) of the same compound?
Its value is “inhibition of growth of a number of strains of bacteria is not reduced in the presence of magnesium and calcium”.

And the MIC (S. aureus; ATCC25923, ATCC 25923, read-out: MIC of Iron Chelators)?
Its MIC is 32 µg/mL.

What about the MIC (S. aureus; ATCC 43300 (MRSA), read-out: MIC of Iron Chelators) of the same compound?
Its MIC is 16 µg/mL.

What about the “OD600 values (growth)” value [3] of the same compound?
The value was “greatly decreases the OD600 values”.

Which results are given for `CNC(=O)c1c(O)c(=O)cc(C)n1C1CC1` [Apo6619, 1-cyclopropyl-3-hydroxy-6-methyl-4-oxo-1,4-dihydro-pyridine-2-carboxylic acid methylamide]?
FIC (EC 35218, EC 43888; [4]): 1.25; FIC (EC 35218, EC 43888; [5]): 1.25; FIC (EC 35218, EC 43888; [6]): 1.25; FIC (EC 35218, EC 43888; [7]): 1.75; FIC (EC 35218, EC 43888; [8]): 1.25; FIC (EC 35218, EC 43888; [9]): 1.25; FIC (EC 35218, EC 43888; [10]): 1.25; FIC (EC 35218, EC 43888; [11]): 0.75
